Usually AUC stands for concentration integrated over time. Read a low AUC as less exposure. For orientation: clearance means a measure of how efficiently the substance is removed, as volume per time. Higher therefore signals efficient removal. What is called bioavailability is the share of a dose that reaches the circulation, judged against a reference dose that is usually intravenous. Low values mean little systemic uptake, high ones much systemic uptake.

Series [1] concerns LnCAP (human prostatic adenocarcinoma cell line). Kind of series: Anti-proliferative activity test (CellTiter-Glo), LnCAP. The series is classed as cell-based. The settings on record: first value of LnCAP/MV4-11 cell, read-out: Cell proliferation IC50 (LnCAP). Here is the method: (§1) IC50 (uM) of the compounds obtained in Examples 1 to 18 against hematological cancer cells and solid tumors was measured for identifying anti-proliferative activities.
(§2) A human prostatic adenocarcinoma cell line, LnCAP (ATCC®, CRL-1740) and human leukemia cell line MV4-11 (ATCC®, CRL-9591) were used to test the degrees of the compounds 1 to 18 in inhibiting the cancer cell growth. The testing cell concentration was adjusted to 6.7×10^3 cells/ml with a culture medium supplemented with 10% FBS, in the temperature of 37° C., 5% CO2 and 95% humidity. Culture media and FBS were purchased from GIBCO. 90 μL of cell suspensions thus obtained was added to two 96-well plates with the final cell density of 600 cells/well, followed by addition of 10 μL of culture medium to each well of plate. The plates were incubated overnight in a humidified incubator at 37° C. with 5% CO2.
(§3) Compounds 1 to 18 were each dissolved with dimethylsulfoxide (DMSO) or phosphate buffer solution (PBS) as a stock solution, and 200× solutions of test compound (2 mM) using DMSO were prepared. Then, the DMSO solution thus obtained was diluted 20-fold with culture medium or PBS to obtain 10× working solution. 10 μL of 10× working solution (drug solution) was dispensed to each well (triplicate for each concentration). The final concentration of DMSO in culture medium was 0.5% [v/v].
(§4) Cell viability was determined using CellTiter-Glo® (CTG) assay. 100 μL of CellTiter-Glo® was added to the equal volume of the cultured cells to read luminescence in EnVision Multi Label Reader.
For orientation: ATP-based viability assays read luminescence as a measure of living cells.

Series [2] has as its system MV4-11 (human leukemia cell line). Briefly: Anti-proliferative activity test (CellTiter-Glo), MV4-11. The series is classed as cell-based. The settings on record: second value of LnCAP/MV4-11 cell, read-out: Cell proliferation IC50 (MV4-11). Here is the method: as §1, §2, §3, §4
Series [3] in a line: Human liver microsomal stability/clearance. Type of series: in vitro ADME. The settings on record: human liver microsomes; first value of Human/Mouse cell; read-out: Liver microsomal clearance (Human). Here is the method: (§5) Human and mouse liver microsomal clearance assays were carried out in CROWN Biosciences (Taicang, China). The human liver microsomes (Cat No. X008067, Lot No. KQB) and mouse liver microsomes (Cat No. M1000, Lot No. 1210302) were purchased from Celsis and Xenotech, respectively.
(§6) 5 μL of test compound stock solution was diluted with 495 μL of 1:1 Methanol/Water (final concentration: 100 μM, 50% MeOH) and combined with 534 μL of the respective liver microsome solution (final concentration: 1.111 μM, 0.555% MeOH). The final concentration of the liver microsome solution was 0.7 mg protein/mL.
(§7) Incubations of the liver microsome solutions were performed in a 96 well plate at 37° C. 90 μL of the liver microsome solutions were added to Blank, and 90 μL of working solution of the test compound was added to all plates except the Blank.
(§8) All plates thus obtained were warmed in water bath at 37° C. for 10 min, and 10 μL of NADPH co-factor solution comprising 42 mg of β-nicotinamide adenine dinucleotide phosphate (Sigma Cat. No. N0505 Lot 020M7009V), 84 mg of isocitric acid (Sigma Cat. No. 11252 Lot 119K1099) and 0.478 mL of isocitric dehydrogenase (Sigma Cat. No. 12002 Lot 086K7055, 15 units/mg protein, warmed in water bath at 37° C. for 5 min was added to the plates. The resulting plates were incubated at 37° C. in the following order: T60 (The test compounds were incubated with the liver microsomal solution and NADPH for 60 min at 37° C.), T30 (such as for 30 min.), and T10 (such as for 10 min.). 300 μL of a cold (4° C.) stop solution (acetonitrile (ACN) including 500 nM of tolbutamide as internal standard) and 10 μL of NADPH co-factor solution to starting plate (T0: 100% of the parent compound without any reaction) were added to the plates. The reaction was stopped by adding 300 μL of the cold (4° C.) stop solution to the other plates in the following order: T10 first, then T30 and T60.
(§9) The samples were centrifuged at 4,000 rpm for 20 min and transferred to Bioanalytical Services for liquid chromatography-mass spectrometry (LC-MS)/MS (Waters UPLC/API 4000, 10 μL injection) analysis.
Background: Liver microsomes are vesicles of endoplasmic reticulum, rich in cytochrome P450 enzymes.

A further series addresses human BRD4 bromodomain 1 (Homo sapiens (Human), UniProt O60885). Briefly: Bromodomain binding assay (BRD4 Alpha-screen). The settings on record: acetylated histone H4 peptide. Here is the method: Bromodomain binding assays were carried out in Reaction Biology (PA, USA) to test the degrees of the inventive compounds in inhibiting the human BRD4 bromodomain 1 by Alpha-screen assay method.
Recombinant human BRD4 bromodomain 1 expressed in E. coli with N-terminal His-tag was used as the enzyme target.
A synthetic peptide ([…]-GSGSK-biotin) containing 1 to 21th amino acids of histone H4 acetylated at lysine 5, 8, 12 and 16 and conjugated to biotin was purchased from Millipore.
BRD4-1 (44 to 170th amino acids; Genbank Accession # NM_058243) was expressed in E. coli with N-terminal His-tag (see, Ni-NTA spin Kit Handbook (Qiagen), second edition, January, 2008). Nickel-Chelate ALPHA acceptor beads (Perkin Elmer) were used to specifically bind BRD4-1, and ALPHA streptavidin donor beads (Perkin Elmer) were used because they specifically recognized the biotinylated H4 peptide.
BRD binding assays were performed in a mixture comprising 50 mM Hepes (pH7.5), 100 mM NaCl, 0.05% CHAPS, 0.1% BSA, and 1% DMSO. After an assay reaction time of 60 min at 25° C., binding was measured with streptavidin donor beads and nickel-chelate acceptor beads. ALPHA signal was detected on Enspire (Ex/Em=680/520-620 nm). IC50 values were calculated from the fit of the dose-response curves. All IC50 values represent geometric mean values of a minimum of four determinations. These assays generally produced results within 3-fold of the reported mean.

Series [4] is described as follows: Mouse liver microsomal stability/clearance. Type of series: in vitro ADME. The settings on record: mouse liver microsomes; second value of Human/Mouse cell; read-out: Liver microsomal clearance (Mouse). Here is the method: as §5, §6, §7, §8, §9
A short description of series [5]: Animal pharmacokinetics in ICR mice. The settings on record: ICR, in vivo, mouse, 10 mg/kg. The series is classed as in vivo. Here is the method:
Pharmacokinetics of the compounds of 1, 2, 7, 8 11 and 15 were evaluated in ICR mice (6˜8 weeks, 20˜25 g) following intravenous (IV) administration at 10 mg/kg and per oral (PO) administration at 10 mg/kg dose level, respectively. Especially, the additional dose level of Compound 1 was 30 mg/kg.
For serum compound analysis, blood samples were collected by cardiac puncture over 24 hr time course. 20 μL of spiked plasma was added into a 96-well plate, adding ten volumes of internal standard (IS) in acetonitrile (ACN) to the obtained precipitated protein mixed thoroughly, centrifuged at 4,000 rpm for 10 min. 150 μL of supernatant thus obtained was transferred to another pre-labeled 96-well plate, mixed with 150 μL of water. 5 μL or 10 μL of the mixture was injected into the LC-MS system under the following conditions:
Column: API-4000+Waters UPLC (TCLM08);
Lower limit of quantification (LLOQ) was at 1 ng/mL. Pharmacokinetic parameters of half-life (T1/2), clearance (CL), maximum plasma concentration (Cmax), mean residence time (MRT) and bioavailability (F %), plasma exposure (AUC) of the compound were calculated using Phoenix WinNonlin 6.3 (non-compartmental model).

In the case of `COc1ccc2c(c1)C(c1ccc(Cl)cc1)=N[C@@H](COS(=O)(=O)C1CC1)c1nnc(C)n1-2` [Compound 4, (R)-(6-(4-chlorophenyl)-8-methoxy-1-methyl-4H-benzo[f][1,2,4]triazolo[4,3-a][1,4]diazepin-4-yl)methyl cyclopropanesulfonate], the IC50 in series [1] came out at 130 nM; in series [2], 690 nM; at human BRD4 bromodomain 1, 420 nM. The microsomal CLint at 1 µM in series [3] amounted to 6.3 µL/min/mg; in series [4] it was 8.9 µL/min/mg.

With `CNS(=O)(=O)OC[C@@H]1N=C(c2ccc(Cl)cc2)c2cc(OC)ccc2-n2c(C)nnc21` [Compound 10, (R)-(6-(4-chlorophenyl)-8-methoxy-1-methyl-4H-benzo[f][1,2,4]triazolo[4,3-a][1,4]diazepin-4-yl)methyl methylsulfamate], the values for the IC50 (in series [1]; in series [2]; on human BRD4 bromodomain 1) were 570 nM, 350 nM and 400 nM, respectively. Further, the microsomal CLint at 1 µM in series [3] was 29 µL/min/mg; in series [4] it was 21 µL/min/mg.

As to `COc1ccc2c(c1)C(c1ccc(Cl)cc1)=N[C@@H](COS(=O)(=O)N(C)C)c1nnc(C)n1-2` [Compound 9, (R)-(6-(4-chlorophenyl)-8-methoxy-1-methyl-4H-benzo[f][1,2,4]triazolo[4,3-a][1,4]diazepin-4-yl)methyl dimethylsulfamate], the IC50 is 1900 nM in series [1], 1490 nM in series [2] and 280 nM on human BRD4 bromodomain 1. In addition, the microsomal CLint at 1 µM in series [3] amounted to 126 µL/min/mg; in series [4], 86 µL/min/mg.

With `Cc1nnc2n1-c1ccc(-c3cnn(CC(N)=O)c3)cc1C(c1ccc(Cl)cc1)=N[C@H]2COS(C)(=O)=O` [Compound 12, (R)-(8-(1-(2-amino-2-oxoethyl)-1H-pyrazol-4-yl)-6-(4-chlorophenyl)-1-methyl-4H-benzo[f][1,2,4]triazolo[4,3-a][1,4]diazepin-4-yl)methyl methanesulfonate], the IC50 in series [1] was found to be 44000 nM; in series [2] it was 1070 nM; on human BRD4 bromodomain 1, 110 nM. Further, the microsomal CLint at 1 µM came out at 5.6 µL/min/mg in series [3] and 6.9 µL/min/mg in series [4].

Turning to `Cc1nnc2n1-c1ccc(-c3cnn(C)c3)cc1C(c1ccc(Cl)cc1)=N[C@H]2COS(C)(=O)=O` [Compound 11, (R)-(6-(4-chlorophenyl)-1-methyl-8-(1-methyl-1H-pyrazol-4-yl)-4H-benzo[f][1,2,4]triazolo[4,3-a][1,4]diazepin-4-yl)methyl methanesulfonate], the values for the IC50 (in series [1]; in series [2]; at human BRD4 bromodomain 1) were 190 nM, 320 nM and 87 nM, respectively. Moreover, the microsomal CLint at 1 µM in series [3] and in series [4] was 8.6 µL/min/mg each time. Further, the exposure (AUC) in series [5] (IV) was 20 µM·h; in series [5] (PO) it was 11.7 µM·h. Besides, the clearance in series [5] (IV) came out at 16.8 mL/min/kg. Moreover, the bioavailability in series [5] (PO) was 58.4%.

For `COc1ccc2c(c1)C(c1ccc(C#N)cc1)=N[C@@H](COS(C)(=O)=O)c1nnc(C)n1-2` [Compound 7, (R)-(6-(4-cyanophenyl)-8-methoxy-1-methyl-4H-benzo[f][1,2,4]triazolo[4,3-a][1,4]diazepin-4-yl)methyl methanesulfonate], the results for the IC50 (in series [1]; in series [2]; at human BRD4 bromodomain 1) were 830 nM, 3340 nM and 230 nM, respectively. Besides, the figures for the microsomal CLint at 1 µM in series [3] and in series [4] were 2.1 µL/min/mg and 3.4 µL/min/mg, respectively. In addition, the values for the AUC in series [5] (IV) and in series [5] (PO) were 17.3 µM·h and 8.19 µM·h, respectively. The same compound showed a clearance in series [5] (IV) of 22.5 mL/min/kg. In series [5] (PO), this compound returned a bioavailability of 47.4%.

Take `CCCS(=O)(=O)OC[C@@H]1N=C(c2ccc(Cl)cc2)c2cc(OC)ccc2-n2c(C)nnc21` [Compound 3, (R)-(6-(4-chlorophenyl)-8-methoxy-1-methyl-4H-benzo[f][1,2,4]triazolo[4,3-a][1,4]diazepin-4-yl)methyl propane-1-sulfonate]: the IC50 was found to be 830 nM in series [1], 1810 nM in series [2] and 390 nM on human BRD4 bromodomain 1. The microsomal CLint at 1 µM was 71.3 µL/min/mg in series [3] and 39.7 µL/min/mg in series [4].

For `Cc1nnc2n1-c1ccc(-c3cnn(CC(=O)N(C)C)c3)cc1C(c1ccc(Cl)cc1)=N[C@H]2COS(C)(=O)=O` [Compound 13, (R)-(6-(4-chlorophenyl)-8-(1-(2-(dimethylamino)-2-oxoethyl)-1H-pyrazol-4-yl)-1-methyl-4H-benzo[f][1,2,4]triazolo[4,3-a][1,4]diazepin-4-yl)methyl methanesulfonate], the IC50 in series [1] worked out at 430 nM; in series [2], 290 nM; at human BRD4 bromodomain 1, 110 nM. Also, the microsomal CLint at 1 µM in series [3] was determined as 12.3 µL/min/mg; in series [4], 7.4 µL/min/mg.

(Values after patent US9884874B2, “Bromodomain-inhibiting compounds and pharmaceutical composition comprising same for preventing or treating a cancer” (KAINOS MEDICINE, INC., priority 2014, dated 2018).)
